Results from patent US6602873B2, “Angiogenesis inhibiting thiadiazolyl pyridazine derivatives” (Janssen Pharamaceutica, N.V., priority 1997, dated 2003).
Counter-ions that a name gives are not always drawn.

What follows are compounds tested on microvessel formation in rat aortic rings (assay: rat aortic ring model of angiogenesis (inhibition of microvessel formation)). Settings: 192 h, microvessel area after eight days in culture vs vehicle-treated control rings.
Type: cell-based
Method: Angiogenesis inhibitory activity was measured in vitro using the rat aortic ring model of angiogenesis as described by Nicosia, R. F. and Ottinetti in “Laboratory Investigation”, vol. 63, p. 115, 1990. The ability of compounds to inhibit microvessel formation was compared to vehicle-treated control rings. Quantitation (microvessel area) following eight days in culture was performed using an image analysis system, consisting of a light microscope, a CCD camera and an automated, custom-designed image analysis program as described by Nissanov, J., Tuman, R. W., Gruver, L. M., and Fortunato, J. M. in “Laboratory Investigation”, vol 73 (#5), p. 734, 1995. Compounds were tested at several concentrations for determination of inhibitory potency (IC50's).

IC50	SMILES
5.56 nM	Cc1nsc(-c2ccc(N(C)CCCCOc3cccc(C(F)(F)F)c3)nn2)n1 [Compound 52, N-methyl-6-(3-methyl-1,2,4-thiadiazol-5-yl)-N-[4-[3-(trifluoromethyl)phenoxy]butyl]-3-pyridazinamine]
3.62 nM	Cc1nsc(-c2ccc(N(C)CCCCOc3ccc(C(F)(F)F)cc3)nn2)n1 [Compound 55, N-methyl-6-(3-methyl-1,2,4-thiadiazol-5-yl)-N-[4-[4-(tri-fluoromethyl)phenoxy]butyl]-3-pyridazinamine monohydrochloride]
4.71 nM	Cc1nsc(-c2ccc(SCCCCOc3cccc(C(F)(F)F)c3)nn2)n1 [Compound 94, 3-(3-methyl-1,2,4-thiadiazol-5-yl)-6-[[4-[3-(trifluoromethyl)phenoxy]butyl]thio]pyridazine]

Same assay, conditions: microvessel area after eight days in culture vs vehicle-treated control rings

IC50	SMILES
45.7 nM	Cc1nsc(-c2ccc(NCCCCNc3ccccc3)nn2)n1 [Compound 3]
21.2 nM	Cc1nsc(-c2ccc(NCCCCCNc3ccccc3)nn2)n1 [Compound 4]
16.4 nM	Cc1nsc(-c2ccc(NCCCCCCNc3ccccc3)nn2)n1 [Compound 5]
0.428 nM	Cc1nsc(-c2ccc(NCCNc3cccc(C(F)(F)F)c3)nn2)n1 [Compound 6]
45.4 nM	Cc1nsc(-c2ccc(NCCCNc3cccc(C(F)(F)F)c3)nn2)n1 [Compound 7]
8.53 nM	Cc1nsc(-c2ccc(NCCCCCCNc3cccc(C(F)(F)F)c3)nn2)n1 [Compound 8]
17.9 nM	Cc1nsc(-c2ccc(N(C)CCNc3ccccc3)nn2)n1 [Compound 9]
15.6 nM	Cc1nsc(-c2ccc(N(C)CCN(C)c3ccccc3)nn2)n1 [Compound 10]
90.8 nM	FC(F)(F)c1cccc(OCCCCNc2ccc(-c3ncns3)nn2)c1 [Compound 11]
31.2 nM	Cc1nsc(-c2ccc(NCCCCOc3ccc(Br)cc3)nn2)n1 [Compound 14]
1.34 nM	Cc1nsc(-c2ccc(NCCCCOc3ccccc3Cl)nn2)n1 [Compound 15]
15.8 nM	Cc1nsc(-c2ccc(NCCCCOc3ccc(Cl)cc3)nn2)n1 [Compound 16]
12.8 nM	Cc1nsc(-c2ccc(NCCCCOc3ccc(Cl)c(Cl)c3)nn2)n1 [Compound 17]
48.4 nM	Cc1nsc(-c2ccc(NCCCCOc3ccc(F)cc3)nn2)n1 [Compound 21]
72.6 nM	Cc1nsc(-c2ccc(NCCCCOc3ccc(F)cc3F)nn2)n1 [Compound 22]
1.33 nM	Cc1nsc(-c2ccc(NCCOc3cccc(C(F)(F)F)c3)nn2)n1 [Compound 24]
40.4 nM	Cc1nsc(-c2ccc(NCCCOc3cccc(C(F)(F)F)c3)nn2)n1 [Compound 25]
3.97 nM	Cc1nsc(-c2ccc(NCCCCOc3cccc(C(F)(F)F)c3)nn2)n1 [Compound 26]
0.622 nM	Cc1nsc(-c2ccc(NCCCCCOc3cccc(C(F)(F)F)c3)nn2)n1 [Compound 27]

IC50	SMILES
1.76 nM	Cc1nsc(-c2ccc(NCCCCCCOc3cccc(C(F)(F)F)c3)nn2)n1 [Compound 28]
24.8 nM	Cc1ccc(C(C)C)c(OCCCCNc2ccc(-c3nc(C)ns3)nn2)c1 [Compound 29]
6.31 nM	COc1cccc(OCCCCNc2ccc(-c3nc(C)ns3)nn2)c1 [Compound 30]
29.4 nM	Cc1nsc(-c2ccc(N(C)CCCCOc3ccccc3)nn2)n1 [Compound 35]
5.3 nM	Cc1nsc(-c2ccc(N(C)CCCCOc3ccc(Br)cc3)nn2)n1 [Compound 36]
1.32 nM	Cc1nsc(-c2ccc(N(C)CCCCOc3ccccc3Cl)nn2)n1 [Compound 37]
37.2 nM	Cc1nsc(-c2ccc(N(C)CCCCOc3ccc(Cl)cc3)nn2)n1 [Compound 38]
17.1 nM	Cc1nsc(-c2ccc(N(C)CCCCOc3ccc(Cl)c(Cl)c3)nn2)n1 [Compound 39]
11.5 nM	COc1ccc(OCCCCN(C)c2ccc(-c3nc(C)ns3)nn2)c(Cl)c1 [Compound 40]
2.56 nM	Cc1nsc(-c2ccc(N(C)CCCCOc3ccccc3F)nn2)n1 [Compound 41]
42.2 nM	Cc1nsc(-c2ccc(N(C)CCCCOc3cccc(F)c3)nn2)n1 [Compound 42]
2.78 nM	Cc1nsc(-c2ccc(N(C)CCCCOc3ccc(F)cc3)nn2)n1 [Compound 43]
15.2 nM	Cc1nsc(-c2ccc(N(C)CCCCOc3ccc(F)cc3F)nn2)n1 [Compound 44]
2 nM	Cc1nsc(-c2ccc(N(C)CCCCOc3ccc(F)c(F)c3)nn2)n1 [Compound 45]
1.46 nM	Cc1nsc(-c2ccc(N(C)CCCCOc3cccc(C(F)(F)F)c3F)nn2)n1 [Compound 46]
12.5 nM	Cc1nsc(-c2ccc(N(C)CCCCOc3cc(C(F)(F)F)ccc3F)nn2)n1 [Compound 47]
1.85 nM	Cc1nsc(-c2ccc(N(C)CCCCOc3cc(F)cc(C(F)(F)F)c3)nn2)n1 [Compound 48]
0.312 nM	Cc1nsc(-c2ccc(N(C)CCCCOc3ccccc3C(F)(F)F)nn2)n1 [Compound 49]
0.83 nM	Cc1nsc(-c2ccc(N(C)CCOc3cccc(C(F)(F)F)c3)nn2)n1 [Compound 50]

IC50	SMILES
9.38 nM	Cc1nsc(-c2ccc(N(C)CCCOc3cccc(C(F)(F)F)c3)nn2)n1 [Compound 51]
7.33 nM	Cc1nsc(-c2ccc(N(C)CCCCOc3cc(C(F)(F)F)cc(C(F)(F)F)c3)nn2)n1 [Compound 53]
13.7 nM	Cc1nsc(-c2ccc(N(C)CCCCOc3ccc([N+](=O)[O-])c(C(F)(F)F)c3)nn2)n1 [Compound 54]
80.7 nM	Cc1nsc(-c2ccc(N(C)CCCCOc3ccc(Br)cc3[N+](=O)[O-])nn2)n1 [Compound 56]
51.1 nM	Cc1nsc(-c2ccc(N(C)CCCCOc3cccc([N+](=O)[O-])c3)nn2)n1 [Compound 57]
35.1 nM	Cc1cccc(OCCCCN(C)c2ccc(-c3nc(C)ns3)nn2)c1 [Compound 61]
5.53 nM	Cc1ccc(C(C)C)c(OCCCCN(C)c2ccc(-c3nc(C)ns3)nn2)c1 [Compound 62]
9.2 nM	CCN(CCCCOc1cccc(C(F)(F)F)c1)c1ccc(-c2nc(C)ns2)nn1 [Compound 63]
32.4 nM	CN(C)c1nsc(-c2ccc(NCCCCOc3cccc(C(F)(F)F)c3)nn2)n1 [Compound 67]
1.6 nM	CN(C)c1nsc(-c2ccc(NCCCCCCNc3cccc(C(F)(F)F)c3)nn2)n1 [Compound 97]
3.07 nM	FC(F)(F)c1cccc(OCCNc2ccc(-c3ncns3)nn2)c1 [Compound 98]
7.01 nM	CN(C)c1nsc(-c2ccc(N(C)CCOc3cccc(C(F)(F)F)c3)nn2)n1 [Compound 100]
2.08 nM	CN(CCCCOc1cccc(C(F)(F)F)c1)c1ccc(-c2nc(CO)ns2)nn1 [Compound 102]
20.3 nM	Cc1nsc(-c2ccc(N(C)CCCNc3cccc(C(F)(F)F)c3)nn2)n1 [Compound 104]
1.49 nM	Cc1nsc(-c2ccc(NCCN(C)c3cccc(C(F)(F)F)c3)nn2)n1 [Compound 105]
37.9 nM	Cc1nsc(-c2ccc(NCCCCNc3cccc(C(F)(F)F)c3)nn2)n1 [Compound 108]
6.98 nM	Cc1nsc(-c2ccc(N(C)CCN(Cc3ccccc3)c3cccc(C(F)(F)F)c3)nn2)n1 [Compound 110]
1.87 nM	Cc1nsc(-c2ccc(N(C)CCCCN(C)c3cccc(C(F)(F)F)c3)nn2)n1 [Compound 111]
13.3 nM	Cc1nsc(-c2ccc(N(C)CCNc3cccc(C(F)(F)F)c3)nn2)n1 [Compound 112]

SMILES	IC50
Cc1nsc(-c2ccc(NCCCCOc3cccc(F)c3)nn2)n1 [Compound 20]	8.15 nM
Cc1nsc(-c2ccc(N(C)CCCCC(=O)c3cccc(C(F)(F)F)c3)nn2)n1 [Compound 70]	12.2 nM
Cc1nsc(-c2ccc(NCCCCSc3ccc(F)cc3)nn2)n1 [Compound 71]	< 0.1 nM
Cc1nsc(-c2ccc(N(C)CCCCSc3ccc(F)cc3)nn2)n1 [Compound 72]	0.388 nM
Cc1nsc(-c2ccc(NCCCCSc3cccc(C(F)(F)F)c3)nn2)n1 [Compound 73]	2.86 nM
Cc1nsc(-c2ccc(N(C)CCCCSc3cccc(C(F)(F)F)c3)nn2)n1 [Compound 74]	1 nM
Cc1nsc(-c2ccc(N(C)CCCCCc3ccc(F)cc3)nn2)n1 [Compound 76]	1.15 nM
Cc1nsc(-c2ccc(NCCCCCc3cccc(C(F)(F)F)c3)nn2)n1 [Compound 77]	5.81 nM
Cc1nsc(-c2ccc(N(C)CCCCCc3cccc(C(F)(F)F)c3)nn2)n1 [Compound 78]	0.28 nM
